Measured values published in patent US20230059136A1, “THE COMPOUNDS AND COMPOSITIONS FOR TREATING CONDITIONS ASSOCIATED WITH NLRP ACTIVITY” (Novartis AG, priority 2018, published 2023).
Where two headings read alike, the source gives them in different places.

Test system: IL-1β production in PMA-differentiated THP-1 cells
Test: IL-1β production in PMA-differentiated THP-1 cells stimulated with gramicidin (hTHP-1 assay containing 2% fetal bovine serum)
Assay type: cell-based, human
Conditions: 2% fetal bovine serum, read-out: hTHP-1 IC50 (Average IC50 of compounds in hTHP-1 assay)
Protocol: Procedure 1: IL-1β Production in PMA-Differentiated THP-1 Cells Stimulated with Gramicidin.
THP-1 cells were purchased from the American Type Culture Collection and sub-cultured according to instructions from the supplier. Cells were cultured in complete RPMI 1640 (containing 10% heat inactivated FBS, penicillin (100 units/ml) and streptomycin (100 μg/ml)), and maintained in log phase prior to experimental setup. Prior to the experiment, compounds were dissolved in dimethyl sulfoxide (DMSO) to generate a 30 mM stock. The compound stock was first pre-diluted in DMSO to 3, 0.34, 0.042 and 0.0083 mM intermediate concentrations and subsequently spotted using Echo550 liquid handler into an empty 384-well assay plate to achieve desired final concentration (e.g. 100, 33, 11, 3.7, 1.2, 0.41, 0.14, 0.046, 0.015, 0.0051, 0.0017 μM). DMSO was backfilled in the plate to achieve a final DMSO assay concentration of 0.37%. The plate was then sealed and stored at room temperature until required.
THP-1 cells were treated with PMA (Phorbol 12-myristate 13-acetate) (20 ng/ml) for 16-18 hours. On the day of the experiment the media was removed and adherent cells were detached with trypsin for 5 minutes. Cells were then harvested, washed with complete RPMI 1640, spun down, and resuspended in RPMI 1640 (containing 2% heat inactivated FBS, penicillin (100 units/ml) and streptomycin (100 μg/ml). The cells were plated in the 384-well assay plate containing the spotted compounds at a density of 50,000 cells/well (final assay volume 50 μl). Cells were incubated with compounds for 1 hour and then stimulated with gramicidin (5 μM) (Enzo) for 2 hours. Plates were then centrifuged at 340 g for 5 min. Cell free supernatant (40 μL) was collected using a 96-channel PlateMaster (Gilson) and the production of IL-1β was evaluated by HTRF (cisbio). The plates were incubated for 18 h at 4° C. and read using the preset HTRF program (donor emission at 620 nm, acceptor emission at 668 nm) of the SpectraMax i3x spectrophotometer (Molecular Devices, software SoftMax 6). A vehicle only control and a dose titration of CRID3 (100-0.0017 μM) were run concurrently with each experiment.
Procedure 2: IL-1β Production in PMA-Differentiated THP-1 Cells Stimulated with Gramicidin.
THP-1 cells were purchased from the American Type Culture Collection and sub-cultured according to instructions from the supplier. Prior to experiments, cells were cultured in complete RPMI 1640 (containing 10% heat inactivated FBS, penicillin (100 units/ml) and streptomycin (100 μg/ml)), and maintained in log phase prior to experimental setup. Prior to the experiment THP-1 were treated with PMA (Phorbol 12-myristate 13-acetate) (20 ng/ml) for 16-18 hours. Compounds were dissolved in dimethyl sulfoxide (DMSO) to generate a 30 mM stock. On the day of the experiment the media was removed and adherent cells were detached with trypsin for 5 minutes. Cells were then harvested, washed with complete RPMI 1640, spun down, resuspended in RPMI 1640 (containing 2% heat inactivated FBS, penicillin (100 units/ml) and streptomycin (100 μg/ml). The cells were plated in a 384-well plate at a density of 50,000 cells/well (final assay volume 50 μl). Compounds were first dissolved in assay medium to obtain a 5× top concentration of 500 μM. 10 step dilutions (1:3) were then undertaken in assay medium containing 1.67% DMSO. 5× compound solutions were added to the culture medium to achieve desired final concentration (e.g. 100, 33, 11, 3.7, 1.2, 0.41, 0.14, 0.046, 0.015, 0.0051, 0.0017 μM). Final DMSO concentration was at 0.37%. Cells were incubated with compounds for 1 hour and then stimulated with gramicidin (5 μM) (Enzo) for 2 hours. Plates were then centrifuged at 340 g for 5 min. Cell free supernatant (40 μL) was collected using a 96-channel PlateMaster (Gilson) and the production of IL-1β was evaluated by HTRF (cisbio). A vehicle only control and a dose titration of CRID3 (100-0.0017 μM) were run concurrently with each experiment. […]

[1] = Homo sapiens, THP-1, Table B1, class symbols
[2] = Homo sapiens, THP-1, Table B2, class symbols
[3] = Homo sapiens, THP-1, Table B1, cells printed as numeric bound

Structure (SMILES)	IC50 (Table B1, class symbols) [µM]	IC50 [1] [µM]	further results
COCc1cc(C(C)C)c(CC(=O)N=S(N)(=O)c2ncc(C(C)(C)O)s2)c(C(C)C)c1 (single isomer, unassigned) [Example 185, (R) or (S)-N-(amino(5-(2-hydroxypropan-2-yl)thiazol-2-yl)(oxo)-λ^6-sulfaneylidene)-2-(2,6-diisopropyl-4-(methoxymethyl)phenyl)acetamide]	0.04 to 0.2		
NS(=O)(=NC(=O)Cc1c2c(cc3c1CCC3)CCC2)c1cnn2c1OCCC2 (single isomer, unassigned) [Example 270, (S) or (R)-N-(amino(6,7-dihydro-5H-pyrazolo[5,1-b][1,3]oxazin-3-yl)(oxo)-λ^6-sulfaneylidene)-2-(1,2,3,5,6,7-hexahydro-s-indacen-4-yl)acetamide]		5 to 30	
CC(C)c1cc2c(c(C(C)C)c1CC(=O)N=S(N)(=O)c1ccc(C(C)(C)O)cc1)COC2 (single isomer, unassigned) [Example 301, (R) or (S)-N-(amino(4-(2-hydroxypropan-2-yl)phenyl)(oxo)-λ^6-sulfaneylidene)-2-(4,6-diisopropyl-1,3-dihydroisobenzofuran-5-yl)acetamide]		1 to 5	
CNCc1ccc(S(N)(=O)=NC(=O)Cc2c(-c3ccccc3)ccc3c2CCC3)cc1 (centres unmarked) [Example 379, N-(amino(4-((methylamino)methyl)phenyl)(oxo)-λ^6-sulfaneylidene)-2-(5-phenyl-2,3-dihydro-1H-inden-4-yl)acetamide]			IC50 [2]: 5 to 30 µM
CC(C)c1cc(C(F)F)cc(C(C)C)c1CC(=O)N=S(N)(=O)c1ccc(C(C)(C)O)cc1F (single isomer, unassigned) [Example 87, (R)- or (S)-2-(4-(difluoromethyl)-2,6-diisopropylphenyl)-N-(2-fluoro-4-(2-hydroxypropan-2-yl)phenylsulfonimidoyl) acetamide]	0.04 to 0.2		
CC(C)c1cc(C#N)c(F)c(C(C)C)c1CC(=O)N=S(N)(=O)c1cnc(C(C)(O)CO)s1 (single isomer, unassigned) [Example 334, (S, S) or (R, S)-N-(amino(2-(1,2-dihydroxypropan-2-yl)thiazol-5-yl)(oxo)-λ^6-sulfaneylidene)-2-(4-cyano-3-fluoro-2,6-diisopropylphenyl) acetamide]	5 to 30		
CC(C)c1cc(C#CC2CCCC2)cc(C(C)C)c1CC(=O)N=S(N)(=O)c1cc(C(C)(C)O)c(-c2ccccc2)s1 (centres unmarked) [Example 240, N-(amino(4-(2-hydroxypropan-2-yl)-5-phenylthiophen-2-yl)(oxo)-λ^6-sulfaneylidene)-2-(4-(cyclopentylethynyl)-2,6-diisopropylphenyl)acetamide]		5 to 30	
CC(C)c1cc(C(F)F)cc(C(C)C)c1CC(=O)N=S(N)(=O)c1ccc(CN(C)C)nc1 (single isomer, unassigned) [Example 328, (R) or (S)-N-(amino(6-((dimethylamino)methyl)pyridin-3-yl)(oxo)-λ^6-sulfaneylidene)-2-(4-(difluoromethyl)-2,6-diisopropylphenyl) acetamide]		1 to 5	
CC(C)(O)c1ncc([S@](N)(=O)=NC(=O)Cc2cc3c(c4c2CCC4)CCC3)s1 [Compound 259b]			IC50 [3]: > 30 µM
Cc1ccc(-c2cc(C(C)C)c(CC(=O)N=S(N)(=O)c3ncc(C(C)(C)O)s3)c(C(C)C)c2)cc1C (single isomer, unassigned) [Example 168, (R) or (S)-N-(amino(5-(2-hydroxypropan-2-yl)thiazol-2-yl)(oxo)-λ^6-sulfaneylidene)-2-(3,5-diisopropyl-3′,4'-dimethyl-[1,1′-biphenyl]-4-yl)acetamide]	0.2 to 1		
CC(C)c1cc(C#N)c(F)c(C(C)C)c1CC(=O)N=S(N)(=O)c1nc(C(C)(C)O)cs1 (single isomer, unassigned) [Example 189, (S) or (R)-N-(amino(4-(2-hydroxypropan-2-yl)thiazol-2-yl)(oxo)-λ^6-sulfaneylidene)-2-(4-cyano-3-fluoro-2,6-diisopropylphenyl) acetamide]	1 to 5		
Cc1nc(C(C)(C)O)sc1S(N)(=O)=NC(=O)Cc1c(C(C)C)cc(OC(F)F)cc1C(C)C (single isomer, unassigned) [Example 85, (R)- or (S)-2-(4-(difluoromethoxy)-2,6-diisopropylphenyl)-N-(2-(2-hydroxypropan-2-yl)-4-methylthiazol-5-ylsulfonimidoyl)acetamide]	5 to 30		
CC(C)c1ccc(F)c(C(C)C)c1CC(=O)N=S(N)(=O)c1cnn2c1OCCC2 (centres unmarked) [Example 268, N-(amino(6,7-dihydro-5H-pyrazolo[5,1b][1,3]oxazin-3-yl)(oxo)-λ^6-sulfaneylidene)-2-(3-fluoro-2,6-diisopropylphenyl)acetamide]		1 to 5	
CC(C)c1cc2c(c(C(C)C)c1CC(=O)N=S(N)(=O)c1ccn(CCO)n1)OC(F)(F)O2 (centres unmarked) [Example 347, N-(amino(1-(2-hydroxyethyl)-1H-pyrazol-3-yl)(oxo)-λ^6-sulfaneylidene)-2-(2,2-difluoro-4,6-diisopropylbenzo[d][1,3]dioxol-5-yl)acetamide]			IC50 [2]: 1 to 5 µM
COCc1cc(C(C)C)c(CC(=O)N=S(N)(=O)c2cc(C(C)(C)O)cs2)c(C(C)C)c1 (single isomer, unassigned) [Example 157, (R) or (S)-N-(amino(4-(2-hydroxypropan-2-yl)thiophen-2-yl)(oxo)-λ^6-sulfaneylidene)-2-(2,6-diisopropyl-4-(methoxymethyl)phenyl)acetamide]	0.008 to 0.04		
CC(C)c1cc(C#N)c(F)c(C(C)C)c1CC(=O)N=S(N)(=O)c1cnc(C(O)CO)s1 (centres unmarked) [compound 382]			IC50 [2]: 1 to 5 µM
CC(C)c1cc(COC2CCCC2)cc(C(C)C)c1CC(=O)N=S(N)(=O)c1cc(C(C)(C)O)n(-c2ccc(F)cc2)n1 (single isomer, unassigned) [Example 284, (S) or (R)-N-(amino(1-(4-fluorophenyl)-5-(2-hydroxypropan-2-yl)-1H-pyrazol-3-yl)(oxo)-λ^6-sulfaneylidene)-2-(4-((cyclopentyloxy)methyl)-2,6-diisopropylphenyl) acetamide]			IC50 [3]: > 30 µM
CC(C)c1cc2c(cnn2C)c(C(C)C)c1CC(=O)N=S(N)(=O)c1ncc(C(C)(C)O)s1 (centres unmarked) [Compound 1341]			IC50 [3]: > 30 µM
CC(C)c1cc2c(c(C(C)C)c1CC(=O)N=S(N)(=O)c1cnc(C(C)(C)O)s1)COC2=O (single isomer, unassigned) [Example 317, (R) or (S)-N-(amino(2-(2-hydroxypropan-2-yl)thiazol-5-yl)(oxo)-λ^6-sulfaneylidene)-2-(4,6-diisopropyl-1-oxo-1,3-dihydroisobenzofuran-5-yl)acetamide]		1 to 5	
CCn1cc(F)c(S(N)(=O)=NC(=O)Cc2c(C(C)C)cc3c(c2C(C)C)COC3)n1 (single isomer, unassigned) [Example 398, (R) or (S)-N-(amino(1-ethyl-4-fluoro-1H-pyrazol-3-yl)(oxo)-λ^6-sulfaneylidene)-2-(4,6-diisopropyl-1,3-dihydroisobenzofuran-5-yl)acetamide]			IC50 [2]: 0.2 to 1 µM
